Target: T1, Chk1 (Homo sapiens, UniProt O14757)
T1 construct: purchased Upstate Biotechnology
T1 sequence (O14757 1-476): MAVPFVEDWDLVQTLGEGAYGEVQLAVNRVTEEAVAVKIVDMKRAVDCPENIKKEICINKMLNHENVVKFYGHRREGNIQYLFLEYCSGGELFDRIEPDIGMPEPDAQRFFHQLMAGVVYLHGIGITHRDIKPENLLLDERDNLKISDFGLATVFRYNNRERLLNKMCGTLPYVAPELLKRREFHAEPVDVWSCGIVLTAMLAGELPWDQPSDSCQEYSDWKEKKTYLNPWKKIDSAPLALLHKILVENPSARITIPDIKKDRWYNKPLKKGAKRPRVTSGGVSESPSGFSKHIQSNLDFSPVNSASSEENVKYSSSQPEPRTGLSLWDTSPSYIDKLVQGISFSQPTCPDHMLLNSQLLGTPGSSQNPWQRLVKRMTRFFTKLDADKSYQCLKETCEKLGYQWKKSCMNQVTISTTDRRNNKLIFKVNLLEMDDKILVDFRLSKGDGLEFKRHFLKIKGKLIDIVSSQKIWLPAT
Test: Chk1 kinase assay: incorporation of γ-33P ATP into immobilized myelin basic protein
Format: biochemical
Settings: Table 11; Chk1 only; read-out: Chk1 IC50
Summary of the method: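 Immobilized-MBP radiometric kinase assay, room temperature for 1 h; ATP 10 μM (Chk1, 10 nM enzyme) or 30 μM (Chk2, 20 nM enzyme) with 33P tracer. Values are IC50s, with Ki derived from them.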

Compound | IC50 [nM]
Nc1ncc(-c2cccc(CN[C@H]3CCc4ccccc43)c2)nc1C(=O)NCCCCO [Example 539, 3-amino-6-(3-{[(1S)-2,3-dihydro-1H-inden-1-ylamino]methyl}phenyl)-N-(4-hydroxybutyl)pyrazine-2-carboxamide] | 50 to 1000
Nc1ncc(-c2cccc(CN[C@H]3CCc4ccccc43)c2)nc1C(=O)NCCN1CCCC1 [Example 540, 3-amino-6-(3-{[(1S)-2,3-dihydro-1H-inden-1-ylamino]methyl}phenyl)-N-(2-pyrrolidin-1-ylethyl)pyrazine-2-carboxamide] | 50 to 1000
Nc1ncc(-c2cccc(CN[C@H]3CCc4ccccc43)c2)nc1C(=O)NCCN1CCCCC1 [Example 541, 3-amino-6-(3-{[(1S)-2,3-dihydro-1H-inden-1-ylamino]methyl}phenyl)-N-(2-piperidin-1-ylethyl)pyrazine-2-carboxamide] | 1000 to 10000
Nc1ncc(-c2cccc(CN[C@H]3CCc4ccccc43)c2)nc1C(=O)NCCN1CCOCC1 [Example 542, 3-amino-6-(3-{[(1S)-2,3-dihydro-1H-inden-1-ylamino]methyl}phenyl)-N-(2-morpholin-4-ylethyl)pyrazine-2-carboxamide] | 1000 to 10000
Nc1ncc(-c2cccc(CN[C@H]3CCc4ccccc43)c2)nc1C(=O)NCC1CC1 [Example 543, 3-amino-N-(cyclopropylmethyl)-6-(3-{[(1S)-2,3-dihydro-1H-inden-1-ylamino}methyl}phenyl)pyrazine-2-carboxamide] | 50 to 1000
Nc1ncc(-c2cccc(CN[C@H]3CCc4ccccc43)c2)nc1C(=O)NCc1ccccc1 [Example 544, 3-amino-6-(3-{[(1S)-2,3-dihydro-1H-inden-1-ylamino]methyl}phenyl)-N-(phenylmethyl)pyrazine-2-carboxamide] | 1000 to 10000
Nc1ncc(-c2cccc(CN[C@H]3CCc4ccccc43)c2)nc1C(=O)NCCc1ccccc1 [Example 545, 3-amino-6-(3-{[(1S)-2,3-dihydro-1H-inden-1-ylamino]methyl}phenyl)-N-(2-phenylethyl)pyrazine-2-carboxamide] | 1000 to 10000
Nc1ncc(-c2cccc(CN[C@H]3CCc4ccccc43)c2)nc1C(=O)c1ccccc1 [Example 546, [3-amino-6-(3-{[(1S)-2,3-dihydro-1H-inden-1-ylamino]methyl}phenyl)pyrazin-2-yl](phenyl)methanone] | 50 to 1000
Nc1ncc(-c2cccc(CN[C@H]3CCc4ccccc43)c2)nc1C(=O)NCCO [Example 547, 3-amino-6-(3-{[(1S)-2,3-dihydro-1H-inden-1-ylamino]methyl}phenyl)-N-(2-hydroxyethyl)pyrazine-2-carboxamide] | 50 to 1000
Nc1ncc(-c2cccc(CN[C@H]3CCc4ccccc43)c2)nc1C(=O)NC1CC1 [Example 548, 3-amino-N-cyclopropyl-6-(3-{[(1S)-2,3-dihydro-1H-inden-1-ylamino]methyl}phenyl)pyrazine-2-carboxamide] | 50 to 1000
Nc1ncc(-c2cccc(CN[C@H]3CCc4ccccc43)c2)nc1C(=O)N1CCCC1 [Example 549, 5-(3-{[(1S)-2,3-dihydro-1H-inden-1-ylamino]methyl}phenyl)-3-(pyrrolidin-1-ylcarbonyl)pyrazin-2-amine] | 1000 to 10000
Cc1nnc(-c2nc(-c3cccc(CO)c3)cnc2N)[nH]1 [Example 550, {3-[5-amino-6-(5-methyl-4H-1,2,4-triazol-3-yl)pyrazin-2-yl]phenyl}methanol] | 1000 to 10000
Nc1ncc(-c2cccc(CO)c2)nc1-c1nnc(-c2ccccc2)[nH]1 [Example 551, {3-[5-amino-6-(5-phenyl-4H-1,2,4-triazol-3-yl)pyrazin-2-yl]phenyl}methanol] | 50 to 1000
Nc1ncc(-c2cccc(CO)c2)nc1-c1nnc(Cc2ccccc2)[nH]1 [Example 552, (3-{5-amino-6-[5-(phenylmethyl)-4H-1,2,4-triazol-3-yl]pyrazin-2-yl}phenyl)methanol] | 1000 to 10000
CNNC(=O)c1nc(-c2cccc(CN[C@H]3CCc4ccccc43)c2)cnc1N [Example 553, 3-amino-6-(3-{[(1S)-2,3-dihydro-1H-inden-1-ylamino]methyl}phenyl)-N′-methylpyrazine-2-carbohydrazide] | 50 to 1000
CN(C)C(=O)c1nc(-c2cccc(CN[C@H]3CCc4ccccc43)c2)cnc1N [Example 554, 3-amino-6-(3-{[(1S)-2,3-dihydro-1H-inden-1-ylamino]methyl}phenyl)-N,N-dimethylpyrazine-2-carboxamide] | 50 to 1000
Nc1ncc(-c2cccc(CN[C@H]3CCc4ccccc43)c2)nc1-c1nnc(Cc2ccccc2)[nH]1 [Example 555, 5-(3-{[(1S)-2,3-dihydro-1H-inden-1-ylamino]methyl}phenyl)-3-[5-(phenylmethyl)-4H-1,2,4-triazol-3-yl]pyrazin-2-amine] | 50 to 1000

Compound | IC50 [nM]
CN(C)CCNC(=O)c1nc(-c2cccc(CN[C@H]3CCc4ccccc43)c2)cnc1N [Example 556, 3-amino-6-(3-{[(1S)-2,3-dihydro-1H-inden-1-ylamino]methyl}phenyl)-N-[2-(dimethylamino)ethyl]pyrazine-2-carboxamide] | 50 to 1000
Nc1ncc(-c2cccc(CN[C@H]3CCc4ccccc43)c2)nc1-c1nc(-c2ccccc2)n[nH]1 [Example 557, 5-(3-{[(1S)-2,3-dihydro-1H-inden-1-ylamino]methyl}phenyl)-3-(3-phenyl-1H-1,2,4-triazol-5-yl)pyrazin-2-amine] | < 50
Nc1ncc(-c2cccc(CN[C@H]3CCc4ccccc43)c2)nc1C(=O)NCCc1c[nH]cn1 [Example 558, 3-amino-6-(3-{[(1S)-2,3-dihydro-1H-inden-1-ylamino]methyl}phenyl)-N-[2-(1H-imidazol-4-yl)ethyl]pyrazine-2-carboxamide] | < 50
CNCCNC(=O)c1nc(-c2cccc(CN[C@H]3CCc4ccccc43)c2)cnc1N [Example 559, 3-amino-6-(3-{[(1S)-2,3-dihydro-1H-inden-1-ylamino]methyl}phenyl)-N-[2-(methylamino)ethyl]pyrazine-2-carboxamide] | < 50
Nc1ncc(-c2cccc(C(=O)NCc3ccccc3)c2)nc1C(=O)c1cccc(F)c1 [Example 560, 3-{5-amino-6-[(3-fluorophenyl)carbonyl]pyrazin-2-yl}-N-(phenylmethyl)benzamide] | ≥ 10000
Nc1ncc(-c2cccc(CN[C@H]3CCc4ccccc43)c2)nc1C(=O)NCCCO [Example 561, 3-amino-6-(3-{[(1S)-2,3-dihydro-1H-inden-1-ylamino]methyl}phenyl)-N-(3-hydroxypropyl)pyrazine-2-carboxamide] | 50 to 1000
CC(C)(C)OC(=O)N1CCC(NC(=O)c2nc(-c3cccc(C(=O)NCc4ccccc4)c3)cnc2N)CC1 [Example 562, 1,1-dimethylethyl 4-({[3-amino-6-(3-{[(phenylmethyl)amino]carbonyl}phenyl)pyrazin-2-yl]carbonyl}amino)piperidine-1-carboxylate] | ≥ 10000
CC(C)(C)OC(=O)N1CCC(CNC(=O)c2nc(-c3cccc(C(=O)NCc4ccccc4)c3)cnc2N)CC1 [Example 563, 1,1-dimethylethyl 4-[({[3-amino-6-(3-{[(phenylmethyl)amino]carbonyl}phenyl)pyrazin-2-yl]carbonyl}amino)methyl]piperidine-1-carboxylate] | ≥ 10000
Nc1ncc(-c2cccc(C(=O)NCc3ccccc3)c2)nc1C(=O)NC1CCNCC1 [Example 564, 3-amino-6-(3-{[(phenylmethyl)amino]carbonyl}phenyl)-N-piperidin-4-ylpyrazine-2-carboxamide] | 50 to 1000
Nc1ncc(-c2cccc(C(=O)NCc3ccccc3)c2)nc1C(=O)NCC1CCNCC1 [Example 565, 3-amino-6-(3-{[(phenylmethyl)amino]carbonyl}phenyl)-N-(piperidin-4-ylmethyl)pyrazine-2-carboxamide] | 50 to 1000
Nc1ncc(-c2cccc(C(=O)NCc3ccccc3)c2)nc1C(=O)N1CCOCC1 [Example 566, 3-[5-amino-6-(morpholin-4-ylcarbonyl)pyrazin-2-yl]-N-(phenylmethyl)benzamide] | 1000 to 10000
CC(C)(C)OC(=O)N1CCC(NC(=O)c2nc(-c3cccc(C(=O)NCc4ccccc4)c3)cnc2N)C1 (stereo not drawn) [Example 567, 1,1-dimethylethyl 3-({[3-amino-6-(3-{[(phenylmethyl)amino]carbonyl}phenyl)pyrazin-2-yl]carbonyl}amino)pyrrolidine-1-carboxylate] | ≥ 10000
Nc1ncc(-c2cccc(C(=O)NCc3ccccc3)c2)nc1C(=O)NC1CCNC1 (stereo not drawn) [Example 568, 3-amino-6-(3-{[(phenylmethyl)amino]carbonyl}phenyl)-N-pyrrolidin-3-ylpyrazine-2-carboxamide] | 50 to 1000
Nc1ncc(-c2cccc(CO)c2)nc1-c1nnc(-c2ccco2)[nH]1 [Example 570, {3-[5-amino-6-(5-furan-2-yl-4H-1,2,4-triazol-3-yl)pyrazin-2-yl]phenyl}methanol] | 50 to 1000
COc1cccc(-c2nnc(-c3nc(-c4cccc(CO)c4)cnc3N)[nH]2)c1 [Example 571, [3-(5-amino-6-{5-[3-(methyloxy)phenyl]-4H-1,2,4-triazol-3-yl}pyrazin-2-yl)phenyl]methanol] | ≥ 10000
Nc1ncc(-c2cccc(CO)c2)nc1C(=O)NNC(=O)Nc1ccccc1 [Example 572, 2-({3-amino-6-[3-(hydroxymethyl)phenyl]pyrazin-2-yl}carbonyl)-N-phenylhydrazinecarboxamide] | 50 to 1000

Source: patent US7704995B2 (Exelixis, Inc., priority 2003, dated 2010)
